In patent US20130202530A1, “NOVEL RADIOTRACER” (IMPERIAL COLLEGE, priority 2010, published 2013):

Key:
choline oxidase = biological target: T1, choline oxidase (Arthrobacter globiformis, UniProt Q7X2H8); assay: Enzymatic oxidation study using choline oxidase; details: 60 minute time point, room temperature
T1 sequence (Q7X2H8 1-546): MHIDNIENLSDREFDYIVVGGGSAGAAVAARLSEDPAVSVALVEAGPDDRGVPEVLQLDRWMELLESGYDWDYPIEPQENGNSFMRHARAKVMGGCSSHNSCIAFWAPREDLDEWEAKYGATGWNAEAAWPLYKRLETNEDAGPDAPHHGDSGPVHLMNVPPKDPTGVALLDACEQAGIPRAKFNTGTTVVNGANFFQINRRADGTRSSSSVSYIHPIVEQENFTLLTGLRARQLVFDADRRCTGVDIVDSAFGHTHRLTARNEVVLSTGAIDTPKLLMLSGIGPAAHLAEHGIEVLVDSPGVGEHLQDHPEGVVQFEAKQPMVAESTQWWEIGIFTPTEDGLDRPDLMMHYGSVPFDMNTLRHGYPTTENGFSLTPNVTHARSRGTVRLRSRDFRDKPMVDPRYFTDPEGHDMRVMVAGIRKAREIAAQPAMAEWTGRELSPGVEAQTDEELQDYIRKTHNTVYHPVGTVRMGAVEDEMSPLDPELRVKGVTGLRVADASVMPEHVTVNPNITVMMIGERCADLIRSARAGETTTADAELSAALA
Description: [^18F]fluoromethylcholine and [^18F]fluoromethyl-[1,2-^2H4]choline were evaluated in a choline oxidase model (Roivainen, A., et al., European Journal of Nuclear Medicine 2000; 27:25-32).
An aliquot of either [^18F]Fluoromethylcholine or [^18F]fluoromethyl-[1,2-^2H4]choline [^18F](100 μL, ˜3.7 MBq) was added to a vial containing water (1.9 mL) to give a stock solution. Sodium phosphate buffer (0.1 M, pH 7) (10 uL) containing choline oxidase (0.05 units/uL) was added to an aliquot of stock solution (190 uL) and the vial was then left to stand at room temperature, with occasional agitation. At selected time-points (5, 20, 40 and 60 minutes) the sample was diluted with HPLC mobile phase (buffer A, 1.1 mL), filtered (0.22 μm filter) and then ˜1 mL injected via a 1 mL sample loop onto the HPLC for analysis. Chromatographic separation was performed on a Waters C18 Bondapak (7.8×300 mm) column (Waters, Milford, Mass., USA) at 3 mL/min with a mobile phase of buffer A, which contained acetonitrile, ethanol, acetic acid, 1.0 mol/L ammonium acetate, water, and 0.1 mol/L sodium phosphate (800:68:2:3:127:10 [v/v]) and buffer B, which contained the same constituents but in different proportions (400:68:44:88:400:10 [v/v]). The gradient program comprised 100% buffer A for 6 minutes, 0-100% buffer B for 10 minutes, 100-0% B in 2 minutes then 0% B for 2 minutes.

[1] = 20 min
Description: The effect of deuterium substitution on bond strength was initially tested by evaluation of the chemical oxidation pattern of [^18F]fluoromethylcholine and [^18F]Fluoromethyl-[1,2-^2H4]choline using potassium permanganate.

[2] = mouse, in vivo
Description: [^18F]FCH or [^18F](D4-FCH) (80-100 μCi) was injected via the tail vein into anesthetized non-tumor bearing C3H-Hej mice; isofluorane/O2/N2O anesthesia was used. Plasma samples obtained at 2, 15, 30 and 60 minutes after injection were snap frozen in liquid nitrogen and stored at −80° C. For analysis, samples were thawed and kept at 4° C. To approximately 0.2 mL of plasma was added ice-cold acetonitrile (1.5 mL). The mixture was then centrifuged (3 minutes, 15,493×g; 4° C.). The supernatant was evaporated to dryness using a rotary evaporator (Heidoloph Instruments GMBH & C0, Schwabach, Germany) at a bath temperature of 45° C. The residue was suspended in mobile phase (1.1 mL), clarified (0.2 μm filter) and analyzed by HPLC. […] All samples were analyzed on an Agilent 1100 series HPLC system equipped with a γ-RAM Model 3 radio-detector (IN/US Systems inc., FL, USA). The analysis was based on the method of Roivannen (Roivainen, A., et al., European Journal of Nuclear Medicine 2000; 27:25-32) using a Phenomenex Luna SCX column (10μ, 250×4.6 mm) and a mobile phase comprising of 0.25 M sodium dihydrogen phosphate (pH 4.8) and acetonitrile (90:10 v/v) delivered at a flow rate of 2 ml/min.

[3] = system: human melanoma SKMEL-28 xenografts; details: mouse, in vivo
Description: Dynamic [^18F]FCH and [^18F]D4-FCH imaging scans were carried out on a dedicated small animal PET scanner, quad-HIDAC (Oxford Positron Systems). The features of this instrument have been described previously (Barthel, H., et al., Cancer Res 2003; 63(13):3791-8). For scanning the tail veins, vehicle- or drug-treated mice were cannulated after induction of anesthesia (isofluorane/O2/N2O). The animals were placed within a thermostatically controlled jig (calibrated to provide a rectal temperature of ˜37° C.) and positioned prone in the scanner. [^18F]FCH or [^18F]D4-FCH (2.96-3.7 MBq) was injected via the tail vein cannula and scanning commenced. Dynamic scans were acquired in list mode format over a 60 min period as reported previously (Leyton, J., et al., Cancer Research 2006; 66(15):7621-9). […] Dynamic data from these slices were averaged for each tissue (liver, kidney, muscle, urine, and tumor) and at each of the 19 time points to obtain time versus radioactivity curves. Corresponding whole body time versus radioactivity curves representing injected radioactivity were obtained by adding together radioactivity in all 200×160×160 reconstructed voxels. Tumor radioactivity was normalized to whole-body radioactivity and expressed as percent injected dose per voxel (% ID/vox). […] The area under the curve was calculated as the integral of % ID/vox from 0 to 60 min.

[4] = system: HCT116 human colon xenografts; details: mouse, in vivo
Description: Time course biodistribution was carried out for [^18F]fluoromethylcholine, [^18F]fluoromethyl-[1-^2H2]choline and [^18F]fluoromethyl-[1,2-^2H4]choline in nude mice bearing HCT116 human colon xenografts.
Human colon (HCT116) tumors were grown in male C3H-Hej mice (Harlan, Bicester, United Kingdom) as previously reported (Leyton, J., et al., Cancer Research 2005; 65(10):4202-10). Tumor dimensions were measured continuously using a caliper and tumor volumes were calculated by the equation: volume=(π/6)×a×b×c, where a, b, and c represent three orthogonal axes of the tumor. Mice were used when their tumors reached approximately 100 mm^3. […] The mice were sacrificed at pre-determined time points (2, 30 and 60 min) after radiotracer injection under terminal anesthesia to obtain blood, plasma, tumor, heart, lung, liver, kidney and muscle. Tissue radioactivity was determined on a gamma counter (Cobra II Auto-Gamma counter, Packard Biosciences Co, Pangbourne, UK) and decay corrected. Data were expressed as percent injected dose per gram of tissue.

[5] = system: human colon carcinoma xenograft HCT116; assay: Imaging response to PD0325901 treatment by [18F]D4-FCH-PET; format: in vivo, mice
Description: Size-matched HCT116 tumor bearing mice were randomized to receive daily treatment by oral gavage of vehicle (0.5% hydroxypropyl methylcellulose+0.2% Tween 80) or 25 mg/kg (0.005 mL/g mouse) of the mitogenic extracellular kinase inhibitor, PD0325901, prepared in vehicle. [^18F]D4-FCH-PET scanning was done after 10 daily treatments with the last dose administered 1 h before scanning. […] The results are illustrated in FIGS. 18 and 19.
These studies were performed in a reproducible tumor model system in which treatment outcomes had been previously characterized, i.e., the human colon carcinoma xenograft HCT116 treated with PD0325901 daily for 10 days (Leyton, J., et al., “Noninvasive imaging of cell proliferation following mitogenic extracellular kinase inhibition by PD0325901”, Mol Cancer Ther 2008; 7(9):3112-21). […] All imaging variables decreased after 10 days of drug treatment (P=0.05, FIG. 18). […] To understand the biomarker changes, the intrinsic cellular effect of PD0325901 on D4-FCH-phosphocholine formation was examined by treating exponentially growing HCT116 cells in culture with PD0325901 for 24 h and measuring the 60-min uptake of [^18F]D4-FCH in vitro.

CHKA = CHKA expression in exponentially growing cells treated with PD0325901; format: cell-based

| Structure (SMILES) | parent radiotracer present (radio-HPLC distribution of choline species) (choline oxidase) | proportion of the parent compound remaining [1] | percentage of parent compound in plasma [2] | % IDvox60max (average of the maximum pixel % ID/vox60 across 5 slices) [3] | tumor uptake (localization of radiotracer) [4] | [18F]D4-FCH radiotracer retention in treated tumors ([5]; 25 mg/kg daily for 10 days, versus vehicle) | imaging variables (% ID/vox60, % ID/vox60max, AUC) ([5]; after 10 days of drug treatment, [18F]D4-FCH-PET) | CHKA expression in vitro (CHKA) |
| --- | --- | --- | --- | --- | --- | --- | --- | --- |
| [2H]C([2H])(O)C([2H])([2H])[N+](C)(C)C[18F] [[^18F]D4-FCH, [^18F]fluoromethyl-[1,2-^2H4]-choline] | 29±4% | greater proportion of the parent compound remaining | consistently higher | significantly higher | pronounced increase in tumor uptake |  |  |  |
| O=C(NOC[C@H](O)CO)c1ccc(F)c(F)c1Nc1ccc(I)cc1F [PD0325901] |  |  |  |  |  | marked reduction in radiotracer retention | decreased | reduction |
| C[N+](C)(C[18F])CCO [[^18F]FCH, [^18F]Fluoromethylcholine, reference compound] | 11±8% |  |  |  |  |  |  |  |
